# Assay results from PubChem BioAssay AID248 (DTP/NCI, 2004).
# Several values for one entry are separate records, joined by “and”; a condition that tells them apart may be missing. Equal values may be shown once. Toxic doses and inconclusive results are not listed.
# Tested on: L1210 leukemia ip in BDF1 mice, survival T/C
# Test: NCI In Vivo Anticancer Drug Screen. Data for tumor model L1210 Leukemia (intraperitoneal) in B6D2F1 (BDF1) mice
# Conditions: endpoint: mean survival time, higher = longer survival
# How it was run: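 Antitumor effect is assessed in tumor-bearing animals. Survival in the compound arm is compared with a vehicle-dosed control arm and expressed as their quotient.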
# [1] = dose: 100.0 mg/kg/injection, schedule: Q04DX003 (ip), vehicle: saline
# [2] = dose: 200.0 mg/kg/injection, schedule: Q04DX003 (ip), vehicle: saline
# [3] = dose: 400.0 mg/kg/injection, schedule: Q04DX003 (ip), vehicle: saline
smiles,measurement,setting,value
O=C(NCCBr)c1ccc(CCl)cc1,T/C,"dose: 75.0 mg/kg/injection, schedule: Q04DX003 (ip), vehicle: Klucel (hydroxypropylcellulose) (HPC)",102 % of control
same,T/C,"dose: 100.0 mg/kg/injection, schedule: Q01DX001 (ip), vehicle: Klucel (hydroxypropylcellulose) (HPC)",104 % of control
same,T/C,"dose: 150.0 mg/kg/injection, schedule: Q04DX003 (ip), vehicle: Klucel (hydroxypropylcellulose) (HPC)",96 % of control
same,T/C,"dose: 200.0 mg/kg/injection, schedule: Q01DX001 (ip), vehicle: Klucel (hydroxypropylcellulose) (HPC)",95 % of control
same,T/C,"dose: 300.0 mg/kg/injection, schedule: Q04DX003 (ip), vehicle: Klucel (hydroxypropylcellulose) (HPC)",97 % of control
same,T/C,"dose: 400.0 mg/kg/injection, schedule: Q01DX001 (ip), vehicle: Klucel (hydroxypropylcellulose) (HPC)",103 % of control
C1=NCCCN2CCCCC12 (stereo unspecified),T/C,"dose: 2.35 mg/kg/injection, schedule: Q01DX009 (ip), vehicle: Klucel (hydroxypropylcellulose) (HPC)",92 % of control
same,T/C,"dose: 4.69 mg/kg/injection, schedule: Q01DX009 (ip), vehicle: Klucel (hydroxypropylcellulose) (HPC)",92 % of control
same,T/C,"dose: 9.38 mg/kg/injection, schedule: Q01DX009 (ip), vehicle: Klucel (hydroxypropylcellulose) (HPC)",97 % of control
same,T/C,"dose: 18.75 mg/kg/injection, schedule: Q01DX009 (ip), vehicle: Klucel (hydroxypropylcellulose) (HPC)",106 % of control
CC1(CO)C2CCC(CC2)C1CO (stereo unspecified),T/C,"dose: 100.0 mg/kg/injection, schedule: Q04DX003 (ip), vehicle: acetone",98 % of control
same,T/C,"dose: 200.0 mg/kg/injection, schedule: Q04DX003 (ip), vehicle: acetone",96 % of control
same,T/C,"dose: 400.0 mg/kg/injection, schedule: Q04DX003 (ip), vehicle: acetone",93 % of control
NC(N)=NCCCC(NC(=O)c1ccccc1)C(=O)Nc1ccc([N+](=O)[O-])cc1 (stereo unspecified),T/C,"dose: 100.0 mg/kg/injection, schedule: Q01DX009 (ip), vehicle: saline with Tween-80",89 % of control
same,T/C,[1],104 % of control
same,T/C,"dose: 200.0 mg/kg/injection, schedule: Q01DX009 (ip), vehicle: saline with Tween-80",95 % of control
same,T/C,[2],100 % of control
same,T/C,"dose: 400.0 mg/kg/injection, schedule: Q01DX009 (ip), vehicle: saline with Tween-80",110 % of control
same,T/C,[3],98 % of control
N#CCCC(CC#N)S(=O)(=O)O (stereo unspecified),T/C,"dose: 100.0 mg/kg/injection, schedule: Q01DX009 (ip), vehicle: saline",105 % of control
same,T/C,[1],100 % of control
same,T/C,"dose: 200.0 mg/kg/injection, schedule: Q01DX009 (ip), vehicle: saline",103 % of control
same,T/C,[2],108 % of control
same,T/C,"dose: 400.0 mg/kg/injection, schedule: Q01DX009 (ip), vehicle: saline",102 % of control
same,T/C,[3],106 % of control
OC(CN(CCCl)CCCl)C(O)C(O)C(O)CN(CCCl)CCCl (stereo unspecified),T/C,"dose: 0.06 mg/kg/injection, schedule: Q01DX Z (ip), vehicle: saline",102 % of control
same,T/C,"dose: 0.1 mg/kg/injection, schedule: Q01DX Z (ip), vehicle: saline",102 % of control
same,T/C,"dose: 0.15 mg/kg/injection, schedule: Q01DX Z (ip), vehicle: saline",105 % of control
same,T/C,"dose: 0.23 mg/kg/injection, schedule: Q01DX Z (ip), vehicle: saline",110 % of control
same,T/C,"dose: 0.25 mg/kg/injection, schedule: Q01DX Z (ip), vehicle: saline",103 % of control
same,T/C,"dose: 0.35 mg/kg/injection, schedule: Q01DX001 (ip), vehicle: saline",150 % of control
same,T/C,"dose: 0.6 mg/kg/injection, schedule: Q01DX Z (ip), vehicle: carboxymethylcellulose (CMC)",108 % of control
same,T/C,"dose: 0.8 mg/kg/injection, schedule: Q01DX001 (ip), vehicle: saline",154 % of control
same,T/C,"dose: 0.8 mg/kg/injection, schedule: Q01DX Z (ip), vehicle: saline",153 % of control and 170 % of control
same,T/C,"dose: 0.9 mg/kg/injection, schedule: Q01DX Z (ip), vehicle: carboxymethylcellulose (CMC)",102 % of control
same,T/C,"dose: 1.0 mg/kg/injection, schedule: Q01DX001 (ip), vehicle: saline",122 % of control
same,T/C,"dose: 1.35 mg/kg/injection, schedule: Q01DX Z (ip), vehicle: carboxymethylcellulose (CMC)",96 % of control
same,T/C,"dose: 1.9 mg/kg/injection, schedule: Q01DX001 (ip), vehicle: saline",158 % of control
same,T/C,"dose: 2.0 mg/kg/injection, schedule: Q01DX001 (ip), vehicle: saline",174 % of control
same,T/C,"dose: 2.0 mg/kg/injection, schedule: Q01DX Z (ip), vehicle: saline",155 % of control and 188 % of control
same,T/C,"dose: 2.03 mg/kg/injection, schedule: Q01DX Z (ip), vehicle: carboxymethylcellulose (CMC)",118 % of control
same,T/C,"dose: 4.0 mg/kg/injection, schedule: Q01DX001 (ip), vehicle: saline",152 % of control
same,T/C,"dose: 4.0 mg/kg/injection, schedule: Q01DX Z (ip), vehicle: saline",117 % of control
same,T/C,"dose: 5.0 mg/kg/injection, schedule: Q01DX001 (ip), vehicle: saline",194 % of control
same,T/C,"dose: 6.7 mg/kg/injection, schedule: Q01DX Z (ip), vehicle: saline",118 % of control
same,T/C,"dose: 8.0 mg/kg/injection, schedule: Q01DX001 (ip), vehicle: saline",97 % of control
